Measured values from BigSolDB 2.1.

c1ccc2oc(CSCc3nc4ccccc4o3)nc2c1
Details	solubility (mole fraction)
in chlorobenzene, 274.85 K	0.00424
in chlorobenzene, 278.15 K	0.00514
in chlorobenzene, 283.15 K	0.00684
in chlorobenzene, 287.95 K	0.00889
in chlorobenzene, 292.95 K	0.0119
in chlorobenzene, 298.35 K	0.0157
in chlorobenzene, 303.25 K	0.0205
in chlorobenzene, 308.15 K	0.0262
in chlorobenzene, 313.25 K	0.0341
in chlorobenzene, 318.05 K	0.0427
in ethanol, 274.15 K	0.00741
in ethanol, 278.15 K	0.00978
in ethanol, 283.15 K	0.014
in ethanol, 288.35 K	0.02
in ethanol, 291.15 K	0.0236
in ethanol, 293.15 K	0.0279
in ethanol, 295.55 K	0.0318
in ethanol, 298.15 K	0.0377
in ethanol, 300.25 K	0.0435
in ethanol, 302.95 K	0.052
in ethanol, 305.15 K	0.0578
in ethanol, 308.15 K	0.0704
in isopropanol, 278.15 K	0.00231
in isopropanol, 283.15 K	0.00333
in isopropanol, 289.15 K	0.00523
in isopropanol, 293.15 K	0.00703
in isopropanol, 298.15 K	0.0105
in isopropanol, 303.15 K	0.014
in isopropanol, 308.15 K	0.0194
in isopropanol, 313.15 K	0.0268
in isopropanol, 318.15 K	0.0372
in isopropanol, 323.15 K	0.051
in n-butanol, 278.35 K	0.00349
in n-butanol, 283.15 K	0.00494
in n-butanol, 288.15 K	0.00698
in n-butanol, 293.25 K	0.00986
in n-butanol, 298.15 K	0.0142
in n-butanol, 303.25 K	0.0199
in n-butanol, 308.15 K	0.0271
in n-butanol, 313.25 K	0.0372
in n-butanol, 318.15 K	0.0516
in n-butanol, 323.15 K	0.0679
in o-xylene, 273.35 K	0.000297
in o-xylene, 278.15 K	0.000431
in o-xylene, 283.15 K	0.00064
in o-xylene, 287.95 K	0.000899
in o-xylene, 293.05 K	0.00138
in o-xylene, 298.15 K	0.00203
in o-xylene, 303.15 K	0.00305
in o-xylene, 308.35 K	0.00443
in o-xylene, 313.15 K	0.00656
in o-xylene, 318.15 K	0.00904
in toluene, 274.15 K	0.000608
in toluene, 278.15 K	0.000971
in toluene, 283.15 K	0.00176
in toluene, 288.15 K	0.00306
in toluene, 293.15 K	0.00522
in toluene, 298.15 K	0.00861
in toluene, 303.15 K	0.0139
in toluene, 308.15 K	0.024
in toluene, 313.25 K	0.0292
in toluene, 318.15 K	0.0413
